One compound from US11229633B2, “Arimoclomol formulation” (Orphazyme A/S, priority 2014, dated 2022) can be followed below.

The structures appear in SMILES notation. Where “and” joins values, the source holds several entries; their conditions need not be identical. Equal entries are not always repeated. Entries after “also recorded” stand apart in the source; their conditions may differ.

One series has as its target T1, human OCT2 (Homo sapiens, UniProt O15244).
T1 construct: expressed in transfected cells; host or cells: CHO (protocol UPT-CHO-OCT2-Metf; control: parental CHO-K1)
T1 sequence (O15244 1-555): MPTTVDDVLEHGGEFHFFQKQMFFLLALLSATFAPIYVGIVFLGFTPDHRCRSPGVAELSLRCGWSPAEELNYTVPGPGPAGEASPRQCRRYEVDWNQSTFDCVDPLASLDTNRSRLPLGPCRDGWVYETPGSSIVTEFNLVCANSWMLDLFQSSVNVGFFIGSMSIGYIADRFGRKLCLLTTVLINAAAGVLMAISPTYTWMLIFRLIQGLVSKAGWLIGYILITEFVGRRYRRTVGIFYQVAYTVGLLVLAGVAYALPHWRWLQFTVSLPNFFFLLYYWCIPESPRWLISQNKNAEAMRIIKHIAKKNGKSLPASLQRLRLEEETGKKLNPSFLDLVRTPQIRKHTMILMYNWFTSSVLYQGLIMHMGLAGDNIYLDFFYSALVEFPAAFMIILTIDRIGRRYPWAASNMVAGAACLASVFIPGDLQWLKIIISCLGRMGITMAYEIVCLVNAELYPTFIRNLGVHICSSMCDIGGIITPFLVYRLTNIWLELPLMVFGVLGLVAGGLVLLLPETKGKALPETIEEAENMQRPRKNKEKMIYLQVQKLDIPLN
The series is described as follows: Uptake transporter inhibition assay, OCT2. The series is classed as in vitro ADME. As to the method:
(§1) Uptake experiments were performed using CHO, MDCKII, or HEK293 cells stably expressing the respective uptake transporters.
(§2) Cells were cultured at 37±1° C. in an atmosphere of 95:5 air:CO2 and were plated onto standard 96-well tissue culture plates at the cell number described in table 4.
(§3) Before the experiment, the medium was removed and the cells were washed twice with 100 μl of HK buffer at pH 7.4 (prepared from Sigma chemicals, Sigma-Aldrich, St Louis, Mo.). Uptake experiments were carried out at 37±1° C. in 50 μl of HK buffer (pH 7.4) containing the probe substrate and the TA or vehicle control (water).
(§4) After the experiment, cells were washed twice with ice cold, 100 μl of HK buffer and lysed with 50 μl of 0.1 M NaOH (1 mM CaCl2) in 5% SDS in the case of OATP1B3). Fluo-3 transport (OATP1B3) was determined by measuring fluorescence using 485 nm and 520 nm as the excitation and emission wavelengths, respectively. Radiolabelled probe substrate transport was determined by measuring an aliquot (35 μl) from each well for liquid scintillation counting.
Uptake of the probe substrate in control cells provided background activity values for all data points. […]
The amount of translocated probe substrate was determined for each well in cpm or RFU. Relative activities were calculated from the equation: […]
(§5) In uptake transporter inhibition assays, the IC50 (μM) was calculated, where applicable. […]

For the next series, the target named is T2, OATP1B1 (Homo sapiens, UniProt Q9Y6L6).
T2 sequence (Q9Y6L6 1-691): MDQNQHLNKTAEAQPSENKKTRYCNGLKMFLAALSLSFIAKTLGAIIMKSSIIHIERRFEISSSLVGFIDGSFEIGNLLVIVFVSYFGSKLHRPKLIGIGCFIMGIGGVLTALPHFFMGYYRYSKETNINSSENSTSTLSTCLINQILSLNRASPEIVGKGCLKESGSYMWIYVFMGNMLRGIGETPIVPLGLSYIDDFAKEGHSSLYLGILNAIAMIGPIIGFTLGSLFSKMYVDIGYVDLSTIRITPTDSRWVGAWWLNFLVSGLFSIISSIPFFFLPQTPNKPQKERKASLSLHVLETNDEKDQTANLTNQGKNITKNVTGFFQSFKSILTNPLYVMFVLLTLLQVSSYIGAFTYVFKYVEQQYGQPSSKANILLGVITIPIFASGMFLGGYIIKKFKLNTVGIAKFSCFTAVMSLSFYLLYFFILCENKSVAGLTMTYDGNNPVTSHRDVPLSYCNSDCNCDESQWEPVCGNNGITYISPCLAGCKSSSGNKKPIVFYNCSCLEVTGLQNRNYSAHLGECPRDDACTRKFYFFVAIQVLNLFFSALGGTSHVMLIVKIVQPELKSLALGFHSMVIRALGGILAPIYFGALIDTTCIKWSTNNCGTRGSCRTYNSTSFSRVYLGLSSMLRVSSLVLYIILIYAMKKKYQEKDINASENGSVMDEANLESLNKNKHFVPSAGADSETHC
The series is described as follows: Uptake transporter inhibition assay, OATP1B1. Format: in vitro ADME. Also noted: expressed in transfected cells; host or cells: HEK293 (protocol UPT-HEK293-OATP1B1-E217βG; control: mock-transfected HEK293 FT); key to maximum inhibition: NIO: No interaction observed. The note with it: for maximum inhibition: 0.3-300 μM. As to the method: as §1, §2, §3, §4
Uptake of the probe substrate in control cells provided background activity values for all data points. Incubation without TA or reference inhibitor (solvent only) provided 100% activity values. A reference inhibitor served as positive control for inhibition.
The amount of translocated probe substrate was determined for each well in cpm or RFU. Relative activities were calculated from the equation:
[formula] A: amount of translocated substrate in the presence of TA in transfected cells B: amount of translocated substrate in the presence of TA in control cells C: amount of translocated substrate in the presence of solvent in transfected cells D: amount of translocated substrate in the presence of solvent in control cells Calculation of Fold Accumulation Values
as §5

Regarding `[O-][n+]1cccc(C(Cl)=NOCC(O)CN2CCCCC2)c1` (centres unmarked) [Arimoclomol, N-[2-hydroxy-3-(1-piperidinyl)-propoxy]-pyridine-1-oxide-3-carboximidoyl chloride], the “Inhibitor of the OCT2 transporter (in words)” value on human OCT2 is given as “inhibitor”. Further, the IC50 (as a rule, the midpoint of a concentration-inhibition curve) against human OCT2 (OCT2-mediated metformin (10 μM) uptake, CHO cells) is 10 µM and 9.72 µM. Also, the maximum inhibition entry on OATP1B1 (Table 2) and on OATP1B1 (Table 5) was “NIO” each time. The “Influence on OATP1B1-mediated probe substrate accumulation (in words)” value on OATP1B1 (applied concentrations) is “did not influence; also recorded: not an inhibitor”.
